According to article PMC8443859 (Journal of Traditional and Complementary Medicine, 2021):
*1 amine or outer side, *2 acyl side, *3 side chain or, on linkers, in order; H or OH if unused. Where a SMILES comes first, the peptide text is derived from it. Bridges are numbered along the chain shown (N, C = ends). Roman numbers before positions name the chains, in order. [ ]: non-standard residue; d: D form. Actinocin(9to1) = Cc1c2oc3c(C)ccc(C(=O)[*:1])c3nc-2c(C(=O)[*:2])c(N)c1=O; NMeV = CN[C@H](C(=O)O)C(C)C; Sar = CNCC(=O)O

Key:
measles virus = details: Vero cells; cited from earlier work
293T cells = test: Cell viability, MTT assay; assay type: cell-based; details: Homo sapiens, HEK-293T, 48 h, read-out: IC50 cell viability
[1] = system: lentivirus particles pseudotyped (Vpp) with SARS-CoV-2 Spike protein; test: organism not typed; assay type: cell-based; details: for inhibition at 10 µM: HEK-293T, read-out: inhibition of SARS-CoV-2 viral infection efficacy
[2] = target: S1 domain of SARS-CoV-2 spike protein (Severe acute respiratory syndrome coronavirus 2, UniProt P0DTC2); test: biochemical; assay type: binding
adenovirus = details: 293 cells; cited from earlier work
[3] = annotation, ref TDEC website; cited from earlier work
[4] = system: interaction between viral spike protein and ACE2 protein; details: cited from earlier work

Which “inhibition of measles virus replication and RNA synthesis” value (measles virus) does the source give for Cc1c2oc3c(C)ccc(C(=O)N[C@@H]4C(=O)N[C@H](C(C)C)C(=O)N5CCC[C@H]5C(=O)N(C)CC(=O)N(C)[C@@H](C(C)C)C(=O)O[C@@H]4C)c3nc-2c(C(=O)N[C@@H]2C(=O)N[C@H](C(C)C)C(=O)N3CCC[C@H]3C(=O)N(C)CC(=O)N(C)[C@@H](C(C)C)C(=O)O[C@@H]2C)c(N)c1=O [Actinomycin D] (I: T[dV]P[Sar][NMeV] / II: T[dV]P[Sar][NMeV]; ester I:1-I:C, II:1-II:C; linker I:N-II:N via Actinocin(9to1)) here?
Its value is “inhibit measles virus replication and RNA synthesis”.

With O=c1cc(-c2ccc(O)c(-c3c(O)cc(O)c4c(=O)cc(-c5ccc(O)cc5)oc34)c2)oc2cc(O)cc(O)c12 [Amentoflavone] as the molecule, how does the IC50 (293T cells) read?
Its IC50 is > 100 µM.

And the inhibition at 10 µM [1]?
Its inhibition at 10 µM is 50 to 90%.

And the “-TΔS” value [2]?
The value was 12.3 kcal/mol.

And the “c (c value)” value [2]?
The value was 6.4.

What about the “n (reaction stoichiometry)” value [2] of the same molecule?
The value was 2.731.

What about the ΔH [2] of the same molecule?
Its ΔH is -19.63 kcal/mol.

And the Kd [2]?
Its Kd is 4.27 µM.

Which “-TΔS” value [2] does the source give for O=C1/C(=c2\c3ccccc3n3c(=O)c4ccccc4nc23)Nc2ccccc21 [Candidine] here?
The value was 17.35 kcal/mol.

What about the “n (reaction stoichiometry)” value [2] of the same molecule?
Its value is 0.115.

What about the ΔG [2] of the same molecule?
The ΔG was -6.554 kcal/mol.

What about the ΔH [2] of the same molecule?
Its ΔH is -23.9 kcal/mol.

And the ΔS [2]?
The ΔS was −243.4 J/mol·K.

And the Kd [2]?
The Kd was 15.7 µM.

With CC1=C(O)C(=O)C=C2C1=CC=C1[C@@]2(C)CC[C@@]2(C)[C@@H]3C[C@](C)(C(=O)O)CC[C@]3(C)CC[C@]12C [Celastrol] as the molecule, how does the IC50 (293T cells) read?
The IC50 was 0.987 µM.

And the inhibition at 10 µM [1]?
Its inhibition at 10 µM is 50 to 90%.

What about the “-TΔS” value [2] of the same molecule?
The value was -47.59 kcal/mol.

What about the “c (c value)” value [2] of the same molecule?
The value was 8.2.

What about the “n (reaction stoichiometry)” value [2] of the same molecule?
Its value is 1.409.

And the ΔG [2]?
Its ΔG is -7.868 kcal/mol.

What about the ΔH [2] of the same molecule?
Its ΔH is 39.72 kcal/mol.

And the ΔS [2]?
The ΔS was 667.9 J/mol·K.

What about the Kd [2] of the same molecule?
Its Kd is 1.71 µM.

What does the source list for O=C1C(C2(C3(C4=Nc5ccccc5C4=O)Nc4ccccc4C3=O)Nc3ccccc3C2=O)=Nc2ccccc21 (stereo not shown) [Cephalinone D]?
-TΔS [2]: -2.383 kcal/mol; c (c value) [2]: 0.8; n (reaction stoichiometry) [2]: 0.333; ΔS [2]: 33.45 J/mol·K

Which results are given for C[C@@H]1CC[C@@]2(OC1)O[C@H]1C[C@H]3[C@@H]4CC=C5C[C@@H](O[C@@H]6O[C@H](CO)[C@@H](O[C@@H]7O[C@@H](C)[C@H](O)[C@@H](O)[C@H]7O)[C@H](O)[C@H]6O[C@@H]6O[C@@H](C)[C@H](O)[C@@H](O)[C@H]6O)CC[C@]5(C)[C@H]4CC[C@]3(C)[C@H]1[C@@H]2C [Dioscin]?
inhibition of adenovirus infection (adenovirus): inhibit the initial stage of adenovirus infection; IC50 (293T cells): 1.56 µM; inhibition of SARS-CoV-2 viral infection efficacy ([1]; 10 µM): more than 80%; Water solubility, Solubility category [3]: Moderate; c (c value) [2]: 117.3; n (reaction stoichiometry) [2]: 5.488; ΔG [2]: -8.635 kcal/mol; ΔS [2]: 110.6 J/mol·K; Kd [2]: 0.468 µM

For CC1(C)[C@@H](O[C@H]2O[C@H](C(=O)O)[C@@H](O)[C@H](O)[C@H]2O[C@@H]2O[C@H](C(=O)O)[C@@H](O)[C@H](O)[C@H]2O)CC[C@]2(C)[C@H]3C(=O)C=C4[C@@H]5C[C@@](C)(C(=O)O)CC[C@]5(C)CC[C@@]4(C)[C@]3(C)CC[C@@H]12 [Glycyrrhizic acid], which “inhibitory activity against spike-ACE2 interaction” value [4] is on record?
The value was “inhibitory activity against the interaction between viral spike protein and ACE2 protein”.
